From patent US9943489B2 (PHARMATWOB LTD., priority 2010, dated 2018)

Legend:
[1] = rat, in vivo, 1.5 mg/kg
Method: The cannulas were placed either in the colon, duodenum and jugular vein for colonic bolus, duodenal bolus and intravenous bolus administration, respectively. A single bolus dose administration to each compartment was done. In addition, a second indwelling cannula was placed in the right vein of each animal for systemic blood sampling. Blood samples (0.5 ml) were taken at 5 minutes pre-dose, 5, 15, 30, 50, 90, 150 and 200 minutes post-dose. To prevent dehydration, equal volumes of physiological solution were administrated to the rats following each withdrawal of blood sample. […] Non-compartmental pharmacokinetic analysis was performed using Excel software. The area under the curve (AUC) was calculated by non-compartmental analysis to the final measurable sample using the linear-log trapezoid method.

MPTP mouse model of PD [2] = assay: Rasagiline-pramipexole combinations in MPTP mouse model of PD, striatal dopamine by HPLC; assay type: in vivo; conditions: for dopamine levels compared to naïve mice: sustained release over 24 hours
Description: A significant body of biochemical data from human brain autopsy studies and those from animal models point to an ongoing process of oxidative stress in the substantia nigra which could initiate dopaminergic neurodegeneration.
MPTP is converted in the brain into the positively charged molecule MPP^+ (1-methyl-4-phenylpyridinium) by the enzyme monoamine oxidase (MAO)-B, causing parkinsonism in primates by killing certain dopamine-producing neurons in the substantia nigra. MPP^+ acts by interfering with oxidative phosphorylation in mitochondria, causing depletion of ATP and cell death.
(§1) Striatum tissue samples were homogenized in ice in 500 μl homogenization buffer (0.1M perchloric acid, 0.02% EDTA and 1% ETOH) using OMNI Tip homogenizing kit of OMNI International (intermediate speed, 3×10 seconds with 5 seconds intervals). The homogenates were sonicated for 5 min and were then centrifuged at 15,000 rpm at 4° C. for 15 min. The supernatants were transferred into fresh tubes and dopamine content was analyzed by HPLC.
The study included 10 groups of about 7-9 mice each, which were treated according to Table 1. […] MPTP was daily injected, during the initial 5 days (days 0-4), and the drug combinations were administered on days 0-11, either IP or using ALZET pump (ALZET micro-osmotic pump, model 1002 with a rate of 0.25 μl/hr, DURECT Corporation, Cupertino, USA) to simulate sustained release. Groups 5-7 were administered with the drug combination 30 min before MPTP application, daily during the initial five days (day 0-4), and on the following days (5-11) drugs are administrated approximately at the same time each dosing day. The ALZET pump was intraperitonealy implanted 15-17 hours before first MPTP administration (groups 8-10), and the total amount of drugs applied by the pump during the dosing period was identical to that given to the IP-injected groups. Controls were naïve untreated mice injected with saline, and MPTP-administered mice injected with saline.
Body weight was measured prior to dosing and every day during the dosing, and individual body weight changes were calculated. Clinical signs were recorded twice weekly throughout the entire study. At study termination day 12, all animals were euthanatized via CO2 asphyxiation. The brain was rapidly removed, placed on a refrigerated plate and dissected. The left and right striatum were removed, weighted, snap-frozen in liquid nitrogen, and stored in −70° C. until further processing. Striatum tissue samples were prepared for HPLC as described in Experimental.

6-OHDA rat model of PD = conditions: 6-OHDA rats; SR by ALZET pump 28 days compared with daily IP injections; amphetamine 1.5 mg/kg IP, 60 min recording
Description: Since in PD it is mainly the dopaminergic nigrostriatal pathway that is subject to degeneration, animal models have been developed in which 6-OHDA lesions of the dopaminergic system were made by unilateral injection of the toxin directly into major efferent projection of the nigrostriatal bundle.
Unilaterally lesioning of the Medial Forebrain Bundle (MFB) by 6-OHDA causes unilaterally destruction of the dopaminergic neurons of the nigrostriatal pathway leading to asymmetry in motor behavior of rats. […] More specifically, administration of the DA-releasing agent D-amphetamine creates a dopamine imbalance that favors the nonlesioned nigrostriatal projection and thus produces clockwise rotations. […] Drug-induced rotations are measured using an automated rotometer consisting of a rotation bowl and a swivel attached to the torso of the rat.
Male adult Sprague-Dawley rats weighing 250-300 g were lesioned with 6-OHDA in the middle forebrain bundle (MFB). Rats were anesthetized with Ketamine-Xylazine (85:15) 0.1 ml/100 g and mounted in the stereotaxic apparatus. 6-OHDA was injected into unilateral MFB according to the following stereotaxic coordinates: AP-2.8 mm, ML-2 mm relatively to the bregma, and DV-9 relatively from the Dura. The injection rate was 1 μl/min using an injection pump and Hamilton micro-syringe. […]

MPTP mouse model of PD [3] = assay: Aminoindan in MPTP mouse model of PD, striatal dopamine by HPLC; assay type: in vivo; conditions: MPTP mice; SR by ALZET pump for 12 days, compared with vehicle or daily IP injection of same drug
Method: as §1
Male C57B1/6 mice weighing 20+/−1 g were used in all experiments (10 mice per group). MPTP was administrated by IP injection at a dose of 40 mg/Kg per day for 5 days. Controls were naïve untreated mice injected with saline, and MPTP-treated mice injected with saline. Aminoindan was applied for 12 days either by daily IP injection or by sustained release using an ALZET pump implanted IP. The effect of the treatments was assessed by measurement of dopamine and its metabolites (dihydroxyphenylacetic acid and homovanillic acid) in left and right striatum taken from the mice at the end of the experiment. Striatum tissue samples were prepared for HPLC as described in Experimental.

| Structure (SMILES) | F (% of IV dose) [1] | AUC ([1]; iv) | CL ([1]; iv) | T1/2 ([1]; iv) | Vss ([1]; iv) | dopamine content compared to naïve mice (MPTP mouse model of PD [2]; acute administration, rasagiline 0.1, 0.12 or 0.15 mg/kg (similar effect)) | dopamine levels compared to naïve mice (MPTP mouse model of PD [2]; rasagiline 0.1 mg/kg) | dopamine levels compared to naïve mice (MPTP mouse model of PD [2]; rasagiline 0.12 mg/kg) | dopamine levels compared to naïve mice (MPTP mouse model of PD [2]; rasagiline 0.15 mg/kg) | amphetamine-induced net rotation (CW-CCW) (6-OHDA rat model of PD) | brain dopamine levels (MPTP mouse model of PD [3]) |
| --- | --- | --- | --- | --- | --- | --- | --- | --- | --- | --- | --- |
| C#CCN[C@@H]1CCc2ccccc21 [rasagiline, R(+)—N-propargyl-1-aminoindan] | ~100% | 23,641 ± 3,481 hr * ng/ml | 54.3 ± 7.1 mL/min/kg | 42.7 ± 5.5 min | 2,404 ± 408 ml/Kg | around 60% | 57% | 74% | 88% | significantly improved effect in net rotation |  |
| NC1CCc2ccccc21 (centres unmarked) [aminoindan, 1-aminoindan] |  |  |  |  |  |  |  |  |  |  | significant restoration of dopamine levels |
